Laboratory results published in US8642656B2, “Calixarene-based peptide conformation mimetics, methods of use, and methods of making” (priority 2004, dated 2014).
Entries after “also recorded” stand apart in the source; their conditions may differ. Like-named read-outs stand apart in the source and are kept apart here.

Experiments:
HUVEC = assay: EC migration, wound healing assay; format: cell-based, human; settings: 25 μM
Protocol: EC migration was measured in the wound healing assay. HUVEC were cultured in triplicate on a 1-mg/ml fibronectin coat in a 24-well tissue culture plate. Cells were grown for 3 days until confluence. When confluent, a wound was made in the well, using a blunt glass pipette. The medium was replaced with medium containing 10 ng/ml bFGF with or without 25 μM compound and at 0, 2, 4, 6, and 8 hours, the wound width was measured at four different predefined places. Photographs were made using an inverted microscope and a Contax 167 MT 35 mm camera.

[1] = tested on: LPS from E. coli serotype 055:B5; assay: LPS neutralization assay (Limulus amoebocyte lysate, QCL-1000); format: biochemical
Description: (§1) The ability of compounds to neutralize endotoxin was detected in vitro by using the chromogenic QCL-1000 kit from BioWhittaker, Inc. (Walkersville, Md.), and as described in their protocol. This Limulus amoebocyte lysate (LAL) assay is quantitative for Gram negative bacterial endotoxin (lipopolysaccharide, LPS). In this assay compounds that are active inhibit the LPS-mediated activation of a proenzyme whose active form would release p-nitroaniline (pNA) from a colorless synthetic substrate producing a yellow color (pNA) whose absorption is monitored spectrophotometrically at 405-410 nm. The initial rate of enzyme activation is proportional to the concentration of endotoxin present.
(§2) Variants of LPS from six Gram negative bacteria were used: E. coli serotypes 0111:B4 (Combrex, Walkersville, Md.) and 055:B5 (Sigma, St. Louis, Mo.); Klebsiella pneumoniae (List Biologies, San Jose, Calif.); Pseudomonas aeruginosa (List Biologies, San Jose, Calif.); Salmonella typhimurium (List Biologies, San Jose, Calif.), and Serratia marcascens (List Biologies, San Jose, Calif.). The concentration of compound required to neutralize a given LPS and therefore to inhibit the Limulus amoebocyte lysate driven by 0.04 units of any given LPS was determined by dose response curves fit by using a standard sigmoidal function to determined the JC50 value for each lopomimetic compound. The 0.04 units corresponds to 0.01 ng LPS from E. coli serotype 055:B5, 0.01 ng LPS from E. coli serotype 0111:B4, 0.003 ng LPS from K. pneumoniae, 0.01 ng LPS from P. aeruginosa, 0.03 ng LPS from S. typhimurium, and 0.03 ng LPS from S. marcascens.

[2] = tested on: LPS from E. coli serotype 0111:B4; assay: as above; format: biochemical; settings: read-out: IC50 values (μM) for LPS binding, E. coli 0111:B4
Description: as §1, §2

LPS from S. typhimurium = assay: as above; format: biochemical, Salmonella typhimurium; settings: read-out: IC50 values (μM) for LPS binding, Salmonella
Description: as §1, §2

bFGF-stimulated HUVEC = assay: EC proliferation, [3H]-thymidine incorporation, bFGF-stimulated HUVEC (Example 48); format: cell-based, human; settings: bFGF-stimulated HUVEC; highest dose tested 25 μM
Protocol: Proliferation is expressed as mean counts per minute (cpm) of quadruplicate cultures in three independent experiments (±SEM). […] Human umbilical vein derived EC (HUVEC) were harvested from normal human umbilical cords by perfusion with 0.125% trypsin/EDTA. Harvested HUVECs were cultured in gelatin coated tissue culture flasks and subcultured 1:3 once a week in culture medium (RPM1-1640 with 20% human serum (HS), supplemented with 2 mM glutamine and 100 U/mL penicillin and 0.1 mg/mL streptomycin). Statistical analysis was performed by using the Student's t-test.

LPS from K. pneumoniae = assay: LPS neutralization assay (Limulus amoebocyte lysate, QCL-1000); format: biochemical, Klebsiella pneumoniae; settings: read-out: IC50 values (μM) for LPS binding, Klebsiella
Description: as §1, §2

[3] = tested on: MA148 human ovarian carcinoma; assay: Proliferation of MA148 tumor cells; format: cell-based; settings: read-out: IC50 against MA148 tumor cells
fibroblasts = assay: Proliferation of fibroblasts (general cell toxicity check); format: cell-based; settings: read-out: concentration giving 50% growth inhibition, fibroblasts
LPS from P. aeruginosa = assay: LPS neutralization assay (Limulus amoebocyte lysate, QCL-1000); format: biochemical, Pseudomonas aeruginosa; settings: read-out: IC50 values (μM) for LPS binding, P.a.
Description: as §1, §2

B16F10 tumor cells = assay: Proliferation of B16F10 tumor cells; format: cell-based, murine; settings: read-out: IC50 against B16F10 tumor cells
LPS from S. marcascens = assay: LPS neutralization assay (Limulus amoebocyte lysate, QCL-1000); format: biochemical, Serratia marcascens; settings: read-out: IC50 values (μM) for LPS binding, Serratia
Description: as §1, §2

E. coli J96 = assay: Bactericidal assay on J96; format: cell-based; settings: for IC50: read-out: Bacterial activity on J96 IC50 (conc)
Description: Pseudomonas aeruginosa type 1 is a clinical, smooth strain isolate stereotyped by using the scheme of Homma et al., Japan. J. Exp. Med. 46, 329-336 (1976) and maintained in the lab by monthly transfer on blood agar plates. E. coli J96, IA2, and H5 are smooth strain, uropathogenic clinical isolates kindly maintained and provided by J. R. Johnson and described in Johnson et al., J. Infect. Disease 173, 920-926 (1996) for J96 and IA2 and in Johnson et al., J. Infect. Disease 173, 746-749 (1996) for H5. J5 is an E. coli rough strain initially referenced by G. R. Siber and discussed in Warren et al., Infect. Immunity 55, 1668-1673 (1987) and is analogous to the smooth strain E. coli 0111:B4 used in the BioWhittaker LAL endotoxin detection and quantitation kit described below. Gram-positive MN8 and MNHO are two patient isolates of Staphylococcus aureus, which were kindly provided by P. M. Schlievert and described in Bohach et al., Rev. Infect. Diseases 11, 75-82 (1989) for MNHO and in Schlievert et al., J. Infect. Diseases 147, 236-242 (1983) for MN8. All cultures are maintained on nutrient agar plates.
Pyrogen-free solutions were used throughout the assay. Log phase bacteria were obtained by transferring an overnight culture or scraping crystals off-85° C glycerol stocks of overnight cultures. Bacteria were washed and resuspended in 0.9% sodium chloride with adjustment to an optical density at 650 nm which yields 3×10^8 CFU/ml. Bacteria were then diluted 1:10 in 0.08 M citrate phosphate buffer, pH 7.0 (prepared by mixing 0.08 M citric acid with 0.08 M dibasic sodium phosphate). Bacteria (0.15 ml) were incubated with the test compound in a final volume of 1.0 ml of buffer. The assay was done in 17×100 polypropylene tubes in a reciprocal water bath shaker at 37° C for 30 minutes. Following this 30 minute (min) incubation. 10-fold dilutions were made in 0.9% sodium chloride. Dilutions were done to 10^−4 and 20 μl of each dilution was streaked across an agar plate. Gram-positive organisms were plated on nutrient agar plates containing 2% agar and Gram-negative organisms were plated on MacConkey agar (2%). Plates were incubated overnight at 37° C and counted the next morning. The dilution containing 10-100 bacteria was counted and the number multiplied by 50 to adjust all counts to the number bacteria killed per milliliter. Compound concentrations were converted to logarithm base ten and graphed. Bactericidal activity was determined by dose response where LD50 values were determined by best fits of a sigmoidal curve to the dose response data.

[4] = tested on: LPS from six species of bacteria; assay: LPS neutralization assay, overall statements; format: biochemical; settings: library of 23 compounds
Description: as §1
as §2, with “The 0.04 units corresponds to 0.01 ng LPS from E. coli serotype 055:B5, 0.01 ng LPS from E. coli serotype 0111:B4, 0.003 ng LPS from K. pneumoniae, 0.01 ng LPS from P. aeruginosa, 0.03 ng LPS from S. typhimurium, and 0.03 ng LPS from S. marcascens.” left out

endothelial cell (EC) = assay: EC Proliferation Assay, [3H]thymidine incorporation (Example 36, Table 1); format: cell-based; settings: read-out: EC proliferation IC50 (conc)
Protocol: Human umbilical vein derived EC(HUVEC) were harvested from normal human umbilical cords by perfusion with 0.125% trypsin/EDTA as described in Groenewegen et al., J. Exp. Med. 164, 131-143 (1986). For determination of quiescent EC phenotype isolated ECs were immediately fixed in 1% paraformaldehyde. Human microvascular ECs (MVECs) were isolated. ECs were cultured in fibronectin coated tissue culture flasks in culture medium (RPMJ-1640 with 20% human serum (HS), supplemented with 2 mM glutamine and 100 U/ml penicillin and 0.1 mg/ml streptomycin).
EC proliferation was measured using a [^3H]thymidine incorporation assay. ECs were seeded at 5000 cells/well in flatbottomed tissue culture plates and grown for 3 days, in the absence or presence of regulators, in culture medium. During the last 6 hours of the assay, the culture was pulsed with 0.5μ Ci [methyl-^3H]thymidine/well.

Fibro = assay: Other cells, Fibro (Table 1); format: cell-based
EC [5] = assay: EC % apoptosis (Table 1); format: cell-based, human
EC [6] = assay: EC % total cell death (Table 1); format: cell-based, human
Solubility (Table 1) = format: physicochemical; settings: footnotes: 3 mM in 100% DMSO or ethanol → 0.03 mM in H2O
Hemolysis (Table 1) = format: cell-based; settings: at 10^−6 M
[7] = Table 3, errors estimated ±30%, read-out: IC50 values (μM) for LPS binding, E. coli 055:B5

With `CCCc1cc2c(OCC(=O)NCCN(C)C)c(c1)Cc1cc(CCC)cc(c1OCC(=O)NCCN(C)C)Cc1cc(CCC)cc(c1OCC(=O)NCCN(C)C)Cc1cc(CCC)cc(c1OCC(=O)NCCN(C)C)C2` [Compound 11a] the “effect on EC migration, wound assay (in words)” value (HUVEC) was “ineffective”, the IC50 [1, 7] was 4.4 µM and the IC50 ([2]; Table 3, errors estimated ±30%) was over 5 µM. It also gave an IC50 (LPS from S. typhimurium; Table 3, errors estimated ±30%) of 4.1 µM, an IC50 (bFGF-stimulated HUVEC) of over 25000 nM and an IC50 (LPS from K. pneumoniae; Table 3, errors estimated ±30%) of 0.08 µM. It also gave an IC50 [3] of 8000 nM, an IC50 (fibroblasts) of about 20000 nM and an IC50 (LPS from P. aeruginosa; Table 3, errors estimated ±30%) of over 5 µM. For the same molecule, the IC50 (B16F10 tumor cells) was 15000 nM, the IC50 (LPS from S. marcascens; Table 3, errors estimated ±30%) was over 5 µM and the “bactericidal activity (in words)” value (E. coli J96; in the micromolar range (Table 1)) was “reasonably good bactericidal activity”.
In the case of `CC(C)(C)c1cc2c(OCCCCN)c(c1)Cc1cc(C(C)(C)C)cc(c1OCCCCNC(=N)N)Cc1cc(C(C)(C)C)cc(c1OCCCCNC(=N)N)Cc1cc(C(C)(C)C)cc(c1OCCCCNC(=N)N)C2.O=C(O)C(F)(F)F` [Compound 43, 5,11,17,23-Tetra-tert-butyl-25,26,27-tris(4-guanidinobutyroxy)-28-(4-aminobutyroxy) calix[4]arene trifloroacetic acid salt], the IC50 ([1]; Table 2, read-out: IC50 values (μM) for LPS binding, E. coli 055:B4) is reported as 0.1 µM, the IC50 [1, 7] is reported as 0.1 µM and the IC50 ([2]; Table 2) is reported as 0.4 µM. For the same molecule, the IC50 ([2]; Table 3, errors estimated ±30%) was 0.4 µM, the IC50 (LPS from S. typhimurium; Table 2) was 0.6 µM and the IC50 (LPS from S. typhimurium; Table 3, errors estimated ±30%) was 0.6 µM. The IC50 (LPS from K. pneumoniae; Table 2) was 0.5 µM, the IC50 (LPS from K. pneumoniae; Table 3, errors estimated ±30%) was 0.5 µM and the IC50 (LPS from P. aeruginosa; Table 2) was 0.8 µM. The IC50 (LPS from P. aeruginosa; Table 3, errors estimated ±30%) was 0.8 µM, the “neutralizing LPS, ranking in words” value [4] was “best LPS neutralizing compounds; also recorded: most effective for neutralizing LPS” and the IC50 (LPS from S. marcascens; Table 2) was 3.2 µM. It also gave an IC50 (LPS from S. marcascens; Table 3, errors estimated ±30%) of 3.2 µM.
In the case of `CN(C)CCNC(=O)COc1c2cc(C(C)(C)C)cc1Cc1cc(C(C)(C)C)cc(c1OCC(=O)NCCN(C)C)Cc1cc(C(C)(C)C)cc(c1OCC(=O)NCCN(C)C)Cc1cc(C(C)(C)C)cc(c1OCC(=O)NCCN(C)C)C2` [drawing 10], the IC50 (endothelial cell (EC)) is reported as over 25000 nM, the “Other cells 25 μM, Fibro” value (Fibro) is reported as 100% and the “EC % Apoptosis 25 μM” value (EC [5]) is reported as “No effect”. For the same molecule, the “EC % total cell death” value (EC [6]) was “No effect”, the IC50 (E. coli J96) was 1300 nM and the “Solubility (solvent, in words)” value (Solubility (Table 1)) was “DMSO/H2O”. It also gave a Hemolysis (Hemolysis (Table 1)) of 100% at 10^−6 M.
For `CC(C)(C)c1cc2c(OCC(=O)NCCN)c(c1)Cc1cc(C(C)(C)C)cc(c1OCC(=O)NCCN)Cc1cc(C(C)(C)C)cc(c1OCC(=O)NCCN)Cc1cc(C(C)(C)C)cc(c1OCC(=O)NCCN)C2` [drawing 14], the IC50 (endothelial cell (EC)) was over 25000 nM, the IC50 (E. coli J96) was over 3800 nM and the “Solubility (solvent, in words)” value (Solubility (Table 1)) was “DMSO/H2O”.
